Earlier results in patent US20030139355A1, “Medicine for orthopaedic surgical application and a treating method using thereof” (priority 2001, published 2003).

How the values were obtained:
[1] = system: ischemia reperfusion disorder in liver; conditions: literature reports
selectins = conditions: in vitro; J. Biol. Chem. 1994

Question: For `CC1(C)[C@@H](O[C@H]2O[C@H](C(=O)O)[C@@H](O)[C@H](O)[C@H]2O[C@@H]2O[C@H](C(=O)O)[C@@H](O)[C@H](O)[C@H]2O)CC[C@]2(C)[C@H]3C(=O)C=C4[C@@H]5C[C@@](C)(C(=O)O)CC[C@]5(C)CC[C@@]4(C)[C@]3(C)CC[C@@H]12` [glycyrrhizin], which “Inhibitory effects on ischemia reperfusion disorder in liver” value [1] is on record?
Answer: effectively exhibits inhibitory effects

Question: And the “Binding between Sialyl-Lewis X and selectins” value (selectins)?
Answer: prevents binding between Sialyl-Lewis X and selectins
